{
  "source": "ChEMBL document CHEMBL1759936",
  "about": "“Oxindole derivatives as inhibitors of TAK1 kinase” (Bioorg Med Chem Lett, 2011)",
  "data": [
    {"molecular_target": "TAK1/TAB1 (Homo sapiens, UniProt O43318)", "sequence (Q15750 whole entry, one chain of several)": "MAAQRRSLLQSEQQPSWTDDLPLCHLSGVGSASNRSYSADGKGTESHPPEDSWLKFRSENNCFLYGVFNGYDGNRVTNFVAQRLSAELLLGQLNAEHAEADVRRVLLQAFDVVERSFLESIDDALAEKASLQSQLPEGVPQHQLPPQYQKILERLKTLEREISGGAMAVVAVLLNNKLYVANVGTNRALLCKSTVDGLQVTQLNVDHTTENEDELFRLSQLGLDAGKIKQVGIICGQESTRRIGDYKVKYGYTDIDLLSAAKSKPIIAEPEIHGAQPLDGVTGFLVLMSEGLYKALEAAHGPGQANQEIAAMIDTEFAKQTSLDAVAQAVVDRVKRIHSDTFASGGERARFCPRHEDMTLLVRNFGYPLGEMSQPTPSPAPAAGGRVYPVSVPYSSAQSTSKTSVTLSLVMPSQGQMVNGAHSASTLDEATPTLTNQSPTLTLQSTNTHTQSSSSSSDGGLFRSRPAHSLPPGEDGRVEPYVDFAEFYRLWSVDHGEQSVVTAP", "assay": "Competitive inhibition of recombinant TAK1-TAB1 assessed as [33P]gamma-ATP incorporation into substrate histone H1 peptide by filter plate assay", "format": "protein-complex assay", "units": {"IC50": "µM"}, "values": [
      {"smiles": "O=C1Nc2ccc(Cl)cc2/C1=N/N=C1\\SCC(=O)N1c1ccc(O)cc1", "IC50": 0.021},
      {"smiles": "O=C1Nc2ccccc2/C1=N/N=C1\\SCC(=O)N1Cc1ccncc1", "IC50": 8.2},
      {"smiles": "O=C1Nc2ccc(F)cc2/C1=N/N=C1\\SCC(=O)N1c1ccc(O)cc1", "IC50": 0.099},
      {"smiles": "O=C1Nc2ccc(Br)cc2/C1=N/N=C1\\SCC(=O)N1c1ccc(O)cc1", "IC50": 0.0089},
      {"smiles": "Cc1ccc2c(c1)/C(=N/N=C1\\SCC(=O)N1c1ccc(O)cc1)C(=O)N2", "IC50": 0.098},
      {"smiles": "O=C1Nc2ccccc2/C1=N/N=C1\\SCC(=O)N1c1cnccc1O", "IC50": 25},
      {"smiles": "O=C1Nc2ccccc2/C1=C/C(=O)c1ccc(O)c(O)c1", "IC50": 0.56},
      {"smiles": "O=C1Nc2ccccc2/C1=C\\c1ccc(O)c(O)c1O", "IC50": 1.7},
      {"smiles": "CC(C)C1S/C(=N\\N=C2/C(=O)Nc3ccc(Cl)cc32)N(c2ccc(O)cc2)C1=O", "note": "(configuration not stated)", "IC50": "> 5"},
      {"smiles": "CN(C)c1ccc(N2C(=O)CS/C2=N\\N=C2/C(=O)Nc3ccccc32)cc1", "IC50": "> 50"},
      {"smiles": "COc1ccc(N2C(=O)CS/C2=N\\N=C2/C(=O)Nc3ccccc32)cc1", "IC50": "> 5"},
      {"smiles": "CCC1S/C(=N\\N=C2/C(=O)Nc3ccc(Cl)cc32)N(c2ccc(O)cc2)C1=O", "note": "(configuration not stated)", "IC50": "> 5"},
      {"smiles": "O=C1Nc2ccccc2/C1=C/C(=O)c1ccccc1", "IC50": "> 5"},
      {"smiles": "O=C1Nc2ccccc2/C1=C/C(=O)c1cccc(O)c1", "IC50": 4.1},
      {"smiles": "O=C1CS/C(=N\\N=C2/C(=O)Nc3ccccc32)N1", "IC50": "> 5"},
      {"smiles": "O=C1Nc2ccccc2/C1=N/N=C1\\SCC(=O)N1c1cccc(O)c1", "IC50": 29},
      {"smiles": "O=C1Nc2ccccc2/C1=N/N=C1\\SCC(=O)N1CC1CCCN1", "note": "(configuration not stated)", "IC50": 30},
      {"smiles": "CC1S/C(=N\\N=C2/C(=O)Nc3ccc(Cl)cc32)N(c2ccc(O)cc2)C1=O", "note": "(configuration not stated)", "IC50": 0.63},
      {"smiles": "O=C1Nc2ccccc2/C1=N/N=C1\\SCC(=O)N1c1ccccc1O", "IC50": 5.8},
      {"smiles": "O=C1Nc2ccc(OC(F)(F)F)cc2/C1=N/N=C1\\SCC(=O)N1c1ccc(O)cc1", "IC50": 3},
      {"smiles": "O=C1Nc2ccccc2/C1=C\\c1ccc(O)c(O)c1", "IC50": "> 5"},
      {"smiles": "O=C1Nc2ccccc2/C1=N/N=C1\\SCC(=O)N1c1ccc(O)cc1", "IC50": 0.046}
    ]},
    {"molecular_target": "TAK1/TAB1 (Homo sapiens) (UniProt Q15750+O43318)", "assay": "Competitive inhibition of recombinant TAK1-TAB1 assessed as [33P]gamma-ATP incorporation into substrate histone H1 peptide at 10 uM by filter plate assay", "format": "protein-complex assay", "units": {"inhibition": "%"}, "values": [
      {"smiles": "O=C1Nc2ccccc2C1c1ccnc(Nc2ccccc2O)n1", "note": "(configuration not stated)", "inhibition": 52},
      {"smiles": "O=C1Nc2ccccc2C1c1ccnc(Nc2ccc(O)cc2)n1", "note": "(configuration not stated)", "inhibition": 39},
      {"smiles": "Cc1c(Cl)ccc2c1NC(=O)/C2=N\\N=C1/SCC(=O)N1c1ccc(O)cc1", "inhibition": 0},
      {"smiles": "O=C1Nc2cccc(Cl)c2/C1=N/N=C1\\SCC(=O)N1c1ccc(O)cc1", "inhibition": 4},
      {"smiles": "O=C1Nc2ccccc2/C1=C/C(=O)c1ccc(O)cc1O", "inhibition": 21},
      {"smiles": "O=C1Nc2ccccc2/C1=N/N=C1\\N=NCN1c1ccc(O)cc1", "inhibition": 0},
      {"smiles": "O=C1Nc2ccccc2/C1=C\\c1c[nH]cn1", "inhibition": 32},
      {"smiles": "Cc1ccc(N2C(=O)CS/C2=N\\N=C2/C(=O)Nc3ccccc32)cc1", "inhibition": 0},
      {"smiles": "O=C1Nc2ccccc2/C1=N/N=C1\\SCC(=O)N1c1ccc(OCc2ccccc2)cc1", "inhibition": 6},
      {"smiles": "C/C(C(=O)c1ccccc1)=C1/C(=O)Nc2ccccc21", "inhibition": 39},
      {"smiles": "O=C1Nc2ccccc2/C1=N/N=C1\\SCC(=O)N1c1cccc(Oc2ccccc2)c1", "inhibition": 0}
    ]},
    {"system": "not listed separately", "assay": "Solubility in phosphate buffer at pH 7.4", "format": "physicochemical", "units": {"solubility": "µM"}, "values": [
      {"smiles": "O=C1Nc2ccc(Br)cc2/C1=N/N=C1\\SCC(=O)N1c1ccc(O)cc1", "solubility": 3.1},
      {"smiles": "O=C1Nc2ccccc2/C1=N/N=C1\\SCC(=O)N1c1ccc(O)cc1", "solubility": 65}
    ]},
    {"system": "HeLa", "assay": "Cytotoxicity against human HeLa cells", "format": "cell-based", "units": {"IC50": "µM"}, "values": [
      {"smiles": "O=C1Nc2ccccc2/C1=N/N=C1\\SCC(=O)N1c1ccc(O)cc1", "IC50": "> 100"}
    ]},
    {"molecular_target": "T1, Mitogen-activated protein kinase kinase kinase 7 (Homo sapiens) (UniProt O43318)", "T1 sequence (whole entry)": "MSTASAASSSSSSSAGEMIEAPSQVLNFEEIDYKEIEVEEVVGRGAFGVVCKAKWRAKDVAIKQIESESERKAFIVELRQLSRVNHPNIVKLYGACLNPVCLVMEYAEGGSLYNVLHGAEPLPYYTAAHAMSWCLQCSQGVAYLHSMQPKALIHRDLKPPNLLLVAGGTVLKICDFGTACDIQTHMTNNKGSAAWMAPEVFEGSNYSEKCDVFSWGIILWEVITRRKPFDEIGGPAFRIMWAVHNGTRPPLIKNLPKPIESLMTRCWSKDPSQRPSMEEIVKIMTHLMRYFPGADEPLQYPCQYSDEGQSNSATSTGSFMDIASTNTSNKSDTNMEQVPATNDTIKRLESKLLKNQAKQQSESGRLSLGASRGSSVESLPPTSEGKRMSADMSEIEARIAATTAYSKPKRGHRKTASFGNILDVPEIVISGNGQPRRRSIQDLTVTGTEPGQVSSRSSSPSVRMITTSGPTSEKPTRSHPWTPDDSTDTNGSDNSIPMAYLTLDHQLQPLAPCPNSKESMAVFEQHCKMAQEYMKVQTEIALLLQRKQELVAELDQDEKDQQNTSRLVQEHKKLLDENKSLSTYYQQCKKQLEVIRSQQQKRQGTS", "assay": "Competitive inhibition of TAK1 overexpressed in Hela cells assessed as TAK1 autophosphorylation on Thr187 by ELISA", "units": {"IC50": "µM"}, "values": [
      {"smiles": "O=C1Nc2ccccc2/C1=N/N=C1\\SCC(=O)N1c1ccc(O)cc1", "IC50": 11}
    ]}
  ]
}
